# In patent publication US20080221074A1, “Drug Screen and Treatment Method” (priority 2006, published 2008):
# “Also recorded” adds a separate entry of the source.
# Key:
# [1] = tested on: osteoblasts and osteocytes; assay: osteoblast and osteocyte apoptosis in vertebral bone of ovariectomized mice (TUNEL); assay type: in vivo, Swiss Webster mice
# Excerpt: The degree of apoptosis of osteoblasts and osteocytes in murine vertebral bone as a function of estrogen deficiency was examined. Swiss Webster mice (four months old) were ovariectomized. Twenty-eight days later, the animals were sacrificed, vertebrae were isolated, fixed and embedded, and then undecalcified in methacrylate.
# [2] = tested on: collagen induced arthritis; assay: collagen induced arthritis (bCII), Foxp3+ cells and clinical score; assay type: in vivo, DBA/1Lac/J mice
# Protocol: Increase of CD4^+CD25^+ T regulatory cells or their activity in vivo. The compound 17α-ethynylandrost-5-ene-3β,7β,17β-triol was administered to mice essentially as described in a previously described collagen induced arthritis animal model. H. Offner et al., Clin. Immunol., 110:181-190, 2006.
# DBA/1Lac/J mice were used for the study. The mice were obtained from Jackson Laboratories (Bar Harbor, Harbor, […].) and housed in accordance with applicable institutional guidelines. Bovine type II collagen (bCII) was used to induce collagen induced arthritis (CIA) by immunizing 8-week-old mice with 200 μg of bCII emulsified 1:1 with CFA containing 200 μg Mycobacterium tuberculosis (100 μL; Difco, Detroit, Mich.). The antigen was injected intradermally at the base of the tail. The animals were monitored for 4-7 weeks to observe the onset and progression of the disease post-immunization. The arthritic severity was evaluated with a grading system for each paw according to the following scale: 0=no redness or swelling; 1=slight swelling in ankle or redness in foot; 2=progressed swelling and inflammation and redness from ankle to mid foot; 3=swelling and inflammation of entire foot; 4=swelling and inflammation of entire foot including toes.
# After immunization, the mice were treated with the drug at 40 mg/kg/day in vehicle by oral gavage beginning at the start of observable clinical disease (beginning at about 26-27 days after immunization). The vehicle that was used for the protocol was 30% cyclodextrin-sulfobutylether in water. The cyclodextrin-sulfobutylether was obtained commercially (Captisol™ available at cydexinc.com). The drug formulation was 20 mg drug/mL in the vehicle.
# osteoprotegerin = osteoprotegerin levels in dexamethasone treated mice; assay type: in vivo; details: vehicle, dexamethasone and compound at 4 mg/kg/day; p<0.05
# Protocol: Osteoprotegerin levels in mice that were treated with vehicle and dexamethasone at 10 μg/day (positive control group) had 3.3 pMol/L osteoprotegerin, while animals treated with vehicle, dexamethasone and 17α-ethynyl-5-androstene-3β,7β,17β-triol at 4 mg/kg/day had 6.4 pMol/L osteoprotegerin (p<0.05).
# [3] = tested on: blood glucose in db/db mice; assay: glucose lowering in diabetic db/db mice; assay type: in vivo, db/db C57BL/Ks mice
# Protocol: Glucose lowering and amelioration of insulin resistance. Glucose lowering effects and amelioration of insulin resistance was assessed in the diabetic db/db mouse model of human diabetes and insulin resistance. In these studies, db/db C57BL/Ks mice of approximately 8 to 10 weeks of age were divided into groups of 10 each and then treated with a vehicle control (no drug) or 17α-ethynylandrost-5-ene-3β,7β,17β-triol by oral gavage. The compound was administered twice a day at 20 mg/kg/day (10 mg/kg dose administered twice per day), 40 mg/kg/day (20 mg/kg dose administered twice per day) or 80 mg/kg/day (40 mg/kg dose administered twice per day) for up to 28 days. Blood glucose levels were monitored twice a week during the dosing period, using a minute amount of blood (nick tail bleeds) to measure the concentration of glucose by glucometer strips. At specific times during the dosing period (day 14 and day 28), an oral glucose tolerance test (OGTT) was also performed by administering a standard oral dose of 1 g/kg glucose (approximately 40 mg in a […]) and then the fluctuation of blood glucose levels was monitored quickly thereafter after at 15, 30, 60 and 120 minutes after the glucose dose. […] Blood glucose approached 380 mg/dL in the vehicle control group and was <230 mg/dL after at least 10 days of dosing in the drug treated group.
# A treatment protocol similar to that described in example 15 was performed with db/db mice that were younger than the animals described in example 15. The animals (n=8 to 10 per group) were treated with 17α-ethynylandrost-5-ene-3β,7β,17β-triol or vehicle by oral gavage twice per day at 40 mg/kg/day (20 mg/kg dose given twice per day) and 80 mg/kg/day (40 mg/kg dose given twice per day). At the start of dosing, the animals were 6 weeks of age, before the onset of elevated glucose levels or hyperglycemia. Dosing with vehicle or drug was maintained for 32 days to determine the effect of the treatments on the onset and rate of progression of hyperglycemia in the animals. In the control group, the onset of hyperglycemia was observed after 25 days of dosing and it continued to worsen, i.e., blood glucose levels rose from normal to frank hyperglycemia, through the end of the 32 day dosing period.
# [4] = tested on: human MG-63 osteosarcoma cell line; assay: reversal of dexamethasone effects in MG-63 osteoblasts; assay type: cell-based; details: 30 nM dexamethasone; compound concentration stated with each value (17α-ethynyl triol: 1 nM)
smiles,measurement,setting,value
"C#C[C@]1(O)CC[C@H]2[C@@H]3[C@@H](O)C=C4C[C@@H](O)CC[C@]4(C)[C@H]3CC[C@@]21C [17α-ethynylandrost-5-ene-3β,7β,17β-triol]",osteoblast and osteocyte apoptosis,[1],reduce apoptosis
same,Foxp3^+ CD4^+ cells by cell sorter analysis,[2]; 40 mg/kg/day oral gavage,1.4%
same,maximum mean clinical score,[2]; day 34 after immunization,about 5
same,mean clinical score,[2]; day 49 after immunization,about 3
same,osteoprotegerin,osteoprotegerin,6.4 pmol/L
same,OGTT peak glycemic excursion,"[3]; 80 mg/kg b.i.d. for 28 days, 30-min post-oral glucose",< 200 mg/dL
same,onset of hyperglycemia,"[3]; 6 week old db/db mice, 32 day dosing",did not rise above normal levels; also recorded: completely blocked progression
same,decrease in hyperglycemic blood glucose levels,"[3]; 8 to 10 week old db/db mice, oral gavage twice a day",approximately 40%
same,basal blood glucose,"[3]; 8 week old male db/db mice, 40 mg/kg dose group, twice a day",markedly suppressed
same,blood glucose,[3]; after at least 10 days of dosing,< 230 mg/dL
same,glucose intolerance in OGTT vs vehicle,[3]; treated db/db animals,significant amelioration of glucose intolerance
same,reversal of the decrease in osteoprotegerin synthesis,[4],completely reversed the decrease in osteoprotegerin synthesis
